According to PubChem BioAssay AID1919005 (Molecular Pharmacology Branch, DTP, NCI, 2023):

Tested on: 855422-203-R-J1-PDC complex spheroid growth
Test: Anticancer human tumor 855422-203-R-J1-PDC patient-derived bladder carcinoma cell line growth inhibition [AhR]
Conditions: for IC50: curve of first compound; for viability, T/C: stronger effect = lower value
From the text: Multicellular complex tumor spheroid response to aryl hydrocarbon receptor antagonists in combination with a variety of drugs and investigational agents in selected tumor cell lines
The current study was undertaken to assess response to aryl hydrocarbon receptor antagonists in combination with standard-of-care drugs and investigational agents in solid tumor complex spheroid models. Complex spheroids include a stromal component modeled by human endothelial cells (HUVEC) and fibroblasts modeled by human mesenchymal stem cells (MSCs). The concentration ranges selected for each drug and investigational agent were based upon clinically achievable concentrations if the clinical Cmax of the agent was known.
Compounds. The drugs and investigational agents: BAY 2416964 (NSC825713), GNF351 (NSC835774), CH-223191 (NSC835775), CPI-455 (NSC825282), aza-TdCyd (NSC777586), decitabine (NSC127716), belinostat (NSC758774), entinostat (NSC756642), pevonedistat (NSC761192), tazemetostat (NSC777109), talazoparib (NSC765396), olaparib (NSC753686), selinexor (NSC780203), nedisertib (M3814, NSC802822), bortezomib (NSC756655), venetoclax (NSC766270), doxorubicin (NSC123127), elimusertib (BAY189344, NSC800525), ceralasertib (AZD6738, NSC777638), TAK-243 (NSC785004), alisertib (NSC759677), etoposide (NSC141540), topotecan (NSC609699), eribulin (NSC707389), gemcitabine (NSC613327), carboplatin (NSC241240), cisplatin (NSC119875), and SN-38 (NSC673596) were obtained from the National Cancer Institute (NCI) Developmental Therapeutics Program Chemical Repository (32). The FDA-approved anticancer drug set is available from the Developmental Therapeutics Program at https://dtp.cancer.gov/organization/dscb/obtaining/available plates.htm. […] The stock solutions were prepared in dimethyl sulfoxide (DMSO, Sigma-Aldrich, St. Louis, MO, cat. D2650), except for the platinum compounds which were prepared in saline (Quality Biological, Gaithersburg, MD, cat. 114-055-101), at 800-fold the tested concentration and stored at -70 degrees C prior to their use. All drugs and investigational agents were tested over a range starting from a high concentration at or near the clinical Cmax and decreasing in half-log increments. If the clinical Cmax for an agent had not been determined, the highest concentration tested was 10 microM (Table 1).
Cell Culture. All cells were maintained in an incubator at 37 degrees C and 5% CO2 with 95% humidity. The PDC lines were cultured according to standard operating procedures established by the NCI PDMR (https://pdmr.cancer.gov). Briefly, all PDCs were thawed and cultured in Matrigel-coated flasks prepared with a working solution of 1X Ham's F-12 nutrient mix, without supplementation (Invitrogen, Waltham, MA, cat. 11765054), 100 U/mL penicillin-streptomycin (Invitrogen, cat. 15140122), and 2.5% Matrigel (Corning Inc., Corning, NY, cat. 354248) for the first three passages. All PDCs were cultured in complete DMEM/F-12 media containing advanced DMEM/F-12 (Invitrogen, cat. 12634028), 4.9% defined fetal bovine serum, heat inactivated (HyClone Laboratories Inc., Logan, UT, cat. SH30070.03HI), 389 ng/mL hydrocortisone (Sigma-Aldrich, cat. H4001), 9.7 ng/mL human EGF recombinant protein (Invitrogen, cat. PHG0313), 23.4 microg/mL adenine (Sigma-Aldrich, cat. A2786), 97.3 U/mL penicillin-streptomycin (Invitrogen, cat. 15140122), 1.9 mM L-glutamine (Invitrogen, cat. 25030081), and 9.7 microM Y-27632 dihydrochloride (Tocris Bioscience, Bristol, United Kingdom, cat. 1254). The PDCs were cultured in complete DMEM/F12 media without 10 microM Y-27632 dihydrochloride for at least two passages prior to the screen. The established cell lines NCI-H1341 and […] were cultured in DMEM/F-12, HEPES (Invitrogen, cat. 11330032), 5% defined fetal bovine serum (HyClone Laboratories Inc., cat. SH30070.03), ITS premix universal culture supplement [insulin (5 microg/mL), transferrin (5 microg/mL), and selenious acid (5 ng/mL)] […]

[1] = second compound 0.1 µM, first compound 0.0316 µM
[2] = second compound 0.1 µM, first compound 0.1 µM
[3] = second compound 0.1 µM, first compound 0.316 µM
[4] = second compound 0.1 µM, first compound 1 µM
[5] = second compound 0.316 µM, first compound 0.0316 µM
[6] = second compound 0.316 µM, first compound 0.1 µM
[7] = second compound 0.316 µM, first compound 0.316 µM
[8] = second compound 0.316 µM, first compound 1 µM
[9] = second compound 1 µM, first compound 0.0316 µM
[10] = second compound 1 µM, first compound 0.1 µM
[11] = second compound 1 µM, first compound 0.316 µM
[12] = second compound 1 µM, first compound 1 µM
[13] = second compound 3.16 µM, first compound 0.0316 µM
[14] = second compound 3.16 µM, first compound 0.1 µM
[15] = second compound 3.16 µM, first compound 0.316 µM
[16] = second compound 3.16 µM, first compound 1 µM
[17] = second compound 10 µM, first compound 0.0316 µM
[18] = second compound 10 µM, first compound 0.1 µM
[19] = second compound 10 µM, first compound 0.316 µM
[20] = second compound 10 µM, first compound 1 µM
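Note: spheroids exposed to agents for seven days before readout.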
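Throughout, for viability, T/C: percent of DMSO vehicle control luminescence viability.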

`COc1cc(C2c3cc4c(cc3C(OC3OC5COC(C)OC5C(O)C3O)C3COC(=O)C23)OCO4)cc(OC)c1O` (stereo not given) + CC(CO)NC(=O)c1cc(-c2ccc(Cl)cc2)nn(-c2cnn(C)c2)c1=O gave an IC50 (second compound 0.1 µM) of 551 nM, an IC50 (second compound 0.316 µM) of 573 nM and an IC50 (second compound 1 µM) of 498 nM. It also gave an IC50 (second compound 3.16 µM) of 327 nM, an IC50 (second compound 10 µM) of 251 nM and a viability, T/C [1] of 104%. It also gave a viability, T/C [2] of 93.5%, a viability, T/C [3] of 72.9% and a viability, T/C [4] of 25.6%. For the same compound, the viability, T/C (second compound 0.1 µM, first compound 3.16 µM) was 12.7%, the viability, T/C (second compound 0.1 µM, first compound 10 µM) was 6.98% and the viability, T/C [5] was 94.2%. It also gave a viability, T/C [6] of 96%, a viability, T/C [7] of 75.6% and a viability, T/C [8] of 25.4%. For the same compound, the viability, T/C (second compound 0.316 µM, first compound 3.16 µM) was 12.1%, the viability, T/C (second compound 0.316 µM, first compound 10 µM) was 5.1% and the viability, T/C [9] was 98.5%. The viability, T/C [10] was 103%, the viability, T/C [11] was 64.3% and the viability, T/C [12] was 25.6%. The viability, T/C (second compound 1 µM, first compound 3.16 µM) was 11.1%, the viability, T/C (second compound 1 µM, first compound 10 µM) was 4.66% and the viability, T/C [13] was 89.5%. It also gave a viability, T/C [14] of 91.8%, a viability, T/C [15] of 48.2% and a viability, T/C [16] of 19.4%. The viability, T/C (second compound 3.16 µM, first compound 3.16 µM) was 9.59%, the viability, T/C (second compound 3.16 µM, first compound 10 µM) was 3.77% and the viability, T/C [17] was 96.2%. For the same compound, the viability, T/C [18] was 82.3%, the viability, T/C [19] was 37.1% and the viability, T/C [20] was 24.3%. The viability, T/C (second compound 10 µM, first compound 3.16 µM) was 8.67% and the viability, T/C (second compound 10 µM, first compound 10 µM) was 4.32%.

For `Nc1ncn(C2CC(O)C(CO)O2)c(=O)n1` (stereo not given) + CC(CO)NC(=O)c1cc(-c2ccc(Cl)cc2)nn(-c2cnn(C)c2)c1=O, the IC50 (second compound 0.1 µM) was > 1000 nM, the IC50 (second compound 0.316 µM) was > 1000 nM and the IC50 (second compound 1 µM) was > 1000 nM. The IC50 (second compound 3.16 µM) was > 1000 nM, the IC50 (second compound 10 µM) was > 1000 nM and the viability, T/C (second compound 0.1 µM, first compound 0.00316 µM) was 92.6%. It also gave a viability, T/C (second compound 0.1 µM, first compound 0.01 µM) of 92.2%, a viability, T/C [1] of 85% and a viability, T/C [2] of 85.3%. The viability, T/C [3] was 73%, the viability, T/C [4] was 76.3% and the viability, T/C (second compound 0.316 µM, first compound 0.00316 µM) was 94.6%. The viability, T/C (second compound 0.316 µM, first compound 0.01 µM) was 90.3%, the viability, T/C [5] was 93.3% and the viability, T/C [6] was 83.6%. The viability, T/C [7] was 80.7%, the viability, T/C [8] was 78.2% and the viability, T/C (second compound 1 µM, first compound 0.00316 µM) was 103%. It also gave a viability, T/C (second compound 1 µM, first compound 0.01 µM) of 96.6%, a viability, T/C [9] of 95.7% and a viability, T/C [10] of 87.4%. For the same compound, the viability, T/C [11] was 82.5%, the viability, T/C [12] was 80.2% and the viability, T/C (second compound 3.16 µM, first compound 0.00316 µM) was 95.3%. For the same compound, the viability, T/C (second compound 3.16 µM, first compound 0.01 µM) was 93.9%, the viability, T/C [13] was 90.2% and the viability, T/C [14] was 79.8%. For the same compound, the viability, T/C [15] was 79.5%, the viability, T/C [16] was 80.9% and the viability, T/C (second compound 10 µM, first compound 0.00316 µM) was 96.5%. The viability, T/C (second compound 10 µM, first compound 0.01 µM) was 88.7%, the viability, T/C [17] was 88.3% and the viability, T/C [18] was 91.5%. The viability, T/C [19] was 84.8% and the viability, T/C [20] was 76.3%.
